Patent publication US8741567B2, “Composition and methods related to modification of 5-hydroxymethylcytosine (5-hmC)” (The University of Chicago, priority 2010, dated 2014)

How the values were obtained:
wild-type βGT = wild-type βGT (Enterobacteria phage T4, UniProt P04547)
TaqαI = biological target: T1, TaqαI (Thermus aquaticus, UniProt P14386); assay: TaqαI digestion of 32-mer dsDNA with T*CGA; details: 100 U TaqαI, 1 hr, 65° C.
T1 sequence (P14386 1-263): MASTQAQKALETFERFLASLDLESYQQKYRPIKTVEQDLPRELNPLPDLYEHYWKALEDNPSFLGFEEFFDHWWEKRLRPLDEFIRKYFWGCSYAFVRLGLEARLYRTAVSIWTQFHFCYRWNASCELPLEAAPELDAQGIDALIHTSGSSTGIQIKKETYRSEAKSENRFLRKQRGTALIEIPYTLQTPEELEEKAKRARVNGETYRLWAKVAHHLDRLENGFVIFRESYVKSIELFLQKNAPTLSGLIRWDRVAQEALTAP

Taq polymerase = biological target: T2, Taq polymerase (Thermus aquaticus, UniProt P19821); assay: Primer extension assay on 40-mer DNA template; type: biochemical; details: streptavidin added (6 eq.-48 eq.), 72° C., 1 min
T2 construct: purchased Sigma
T2 sequence (P19821 whole entry): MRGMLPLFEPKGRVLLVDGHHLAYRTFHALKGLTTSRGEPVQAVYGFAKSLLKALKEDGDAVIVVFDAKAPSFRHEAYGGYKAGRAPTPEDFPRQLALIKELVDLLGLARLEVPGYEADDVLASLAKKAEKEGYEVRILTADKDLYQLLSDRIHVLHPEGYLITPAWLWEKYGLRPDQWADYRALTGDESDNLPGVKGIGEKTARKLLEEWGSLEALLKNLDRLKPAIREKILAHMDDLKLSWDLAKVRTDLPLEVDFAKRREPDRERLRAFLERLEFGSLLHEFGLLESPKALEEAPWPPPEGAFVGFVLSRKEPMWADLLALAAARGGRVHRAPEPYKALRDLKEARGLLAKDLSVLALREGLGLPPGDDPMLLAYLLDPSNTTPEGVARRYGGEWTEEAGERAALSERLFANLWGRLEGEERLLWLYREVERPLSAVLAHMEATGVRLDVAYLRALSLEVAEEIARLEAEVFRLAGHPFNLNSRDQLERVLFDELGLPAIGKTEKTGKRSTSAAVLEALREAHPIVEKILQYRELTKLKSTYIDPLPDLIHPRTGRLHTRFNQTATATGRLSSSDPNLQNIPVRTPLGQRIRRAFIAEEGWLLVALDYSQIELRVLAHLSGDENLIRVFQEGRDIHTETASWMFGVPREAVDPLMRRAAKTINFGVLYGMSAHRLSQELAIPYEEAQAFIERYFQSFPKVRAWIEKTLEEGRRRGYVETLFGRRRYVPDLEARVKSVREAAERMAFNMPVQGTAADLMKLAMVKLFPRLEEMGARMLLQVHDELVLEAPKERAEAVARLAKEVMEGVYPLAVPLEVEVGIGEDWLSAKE
Description: FIGS. 9A-9B. The streptavidin adduct of biotin-5-N3-gmC hinders primer extension. (A) Sequence of 40 mer DNA containing cytosines derivatives used in primer extension. Cytosine 25, counting from right to left, with an asterisk presented the modified cytosines in the sequences, and also the position at which DNA polymerases tended to stall when the streptavidine adduct of biotin-5-N3-gmC-containing DNA was used as template. The arrow corresponded to the reverse PCR primer used for primer extension. (B) Primer extension assays for 40 mer DNA containing different cytosine species, shown beside a Sanger sequencing ladder. […] Position with the most significant stalling was position 24, one base before the modified position, although significant stalling still observed in the modified position (position 25, arrow). Primer extension using Sigma TaqRED polymerase, extension at 72° C. for 1 min. Sequencing ladder was performed with Sequenase from USB.
The properties of 5-hmC in duplex DNA are quite similar to those of 5-mC in terms of its sensitivity toward enzymatic reactions such as restriction enzyme digestion and polymerization (Flusberg et al., 2010; Josse and Kornberg, 1962; Lariviere and Morera, 2004). In an attempt to develop a method to differentiate these two bases in DNA, primer extension with a biotin-N3-5-gmC-modified DNA template was tested. […]

MspI [1] = biological target: T3, MspI (Moraxella sp, UniProt P11405); assay: MspI digestion of 32-mer dsDNA with C*CGG; details: 100 U MspI, 1 hr, 37° C.
T3 sequence (P11405 whole entry): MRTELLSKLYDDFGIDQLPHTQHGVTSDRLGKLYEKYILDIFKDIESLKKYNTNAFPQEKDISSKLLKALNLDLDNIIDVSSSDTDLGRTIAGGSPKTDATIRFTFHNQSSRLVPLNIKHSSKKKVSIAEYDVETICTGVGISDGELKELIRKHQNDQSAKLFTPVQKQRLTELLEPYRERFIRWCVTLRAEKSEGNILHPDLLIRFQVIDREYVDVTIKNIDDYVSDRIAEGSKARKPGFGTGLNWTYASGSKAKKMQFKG

MspI [2] = biological target: T3, MspI; assay: MspI restriction digestion of 40-mer DNA with CC*GG; type: biochemical; details: 40-mer duplex DNA
Description: FIG. 2. Restriction enzyme digestion assay of a 40 mer DNA with CC*GG (where C*=C, 5-meC, 5-hmC, or 5-gmC).
The inventors tested a restriction enzyme digestion assay with a 40-mer DNA containing a CC*GG (C*=C, 5-meC, 5-hmC, or 5-gmC) sequence in the middle. […] With bulkier groups on 5-hmC, digestions by other restriction enzymes that recognize DNA sequences containing CpG can be blocked.

HpaII = HpaII (Haemophilus parainfluenzae, UniProt P36433); type: biochemical; details: 40-mer DNA
HpaII, sequence (P36433 whole entry, looked up): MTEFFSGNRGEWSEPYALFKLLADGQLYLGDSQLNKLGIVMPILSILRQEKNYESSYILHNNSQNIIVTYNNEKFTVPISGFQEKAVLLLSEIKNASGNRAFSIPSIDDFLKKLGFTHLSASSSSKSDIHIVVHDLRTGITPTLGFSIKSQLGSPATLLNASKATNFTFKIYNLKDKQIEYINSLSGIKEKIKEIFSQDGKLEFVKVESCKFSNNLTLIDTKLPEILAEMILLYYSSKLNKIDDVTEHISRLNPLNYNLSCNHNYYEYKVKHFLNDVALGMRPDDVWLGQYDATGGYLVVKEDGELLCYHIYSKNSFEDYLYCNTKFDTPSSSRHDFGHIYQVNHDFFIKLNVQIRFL

[3] = system: four different polymerases; assay: Primer extension and PCR with 5-gmC-containing DNA; type: biochemical
Description: The inventors synthesized the phosphoramidite of 5-hmC (now commercially available from Glen Research) and prepared duplex DNA with 5-hmC incorporated at specific locations.

wild-type βGT, sequence (P04547 with tags, fused parts or gaps): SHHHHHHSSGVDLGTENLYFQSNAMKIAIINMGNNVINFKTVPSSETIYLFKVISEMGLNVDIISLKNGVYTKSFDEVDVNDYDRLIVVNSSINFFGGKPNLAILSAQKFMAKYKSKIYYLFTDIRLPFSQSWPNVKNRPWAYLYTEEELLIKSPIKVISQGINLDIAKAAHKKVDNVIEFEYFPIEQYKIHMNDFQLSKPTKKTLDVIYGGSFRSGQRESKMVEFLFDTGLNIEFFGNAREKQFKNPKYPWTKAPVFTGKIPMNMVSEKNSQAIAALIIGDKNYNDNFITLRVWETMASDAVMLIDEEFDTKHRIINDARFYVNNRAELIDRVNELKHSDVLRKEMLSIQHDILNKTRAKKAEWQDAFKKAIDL

In the case of “Uridine 5′-(2,3,4-tri-O-acetyl-6-azido-6-deoxy-α-D-glucopyranosyl)diphosphate bistriethylammonium salt [UDP-6-N3-Glu]”, the “efficiency of transfer to 5-hmC-containing duplex DNA relative to UDP-Glu” value (wild-type βGT) is reported as “as efficiently as with UDP-Glu” and the “time for 6-N3-glucose transfer reaction to finish” value (wild-type βGT; 11-mer duplex DNA with 5-hmC, as low as 1% enzyme concentration) is reported as ≤ 5 min.

In the case of “β-6-azide-glucosyl-5-hydroxymethyl-cytosine [N3-5-gmC]”, the “TaqαI digestion, hemi-modified DNA” value (TaqαI; hemi-hydroxymethylation) is reported as “cannot block digestion as well as the fully-modified one”, the “TaqαI digestion, fully-modified DNA” value (TaqαI; modified on both strands) is reported as “only partially” and the “primer extension on modified template with streptavidin” value (Taq polymerase) is reported as “completely stalled”. The “MspI digestion, fully-modified DNA” value (MspI [1]) was “block MspI digestion completely” and the “MspI digestion, hemi-modified DNA” value (MspI [1]) was “can be protected from digestion”.

“β-glucosyl-5-hydroxymethyl-cytosine [5-gmC]” was tested, and the “MspI cutting of modified CC*GG site” value (MspI [2]) was “completely blocks”, the “MspI cutting of modified CC*GG site” value (MspI [2]; listed as C(5-gmC)GG) was “completely blocked” and the “HpaII cutting of modified CC*GG site” value (HpaII) was “does not cut”. The “interference with polymerization reaction” value [3] was “does not exhibit any interference”.
